In publication PMC9081267 (Nature microbiology, 2022):
pIC50: −log10 of the molar value.

Target: T1, bovine pancreatic trypsin (Bos taurus, UniProt P00760)
T1 sequence (P00760 24-246): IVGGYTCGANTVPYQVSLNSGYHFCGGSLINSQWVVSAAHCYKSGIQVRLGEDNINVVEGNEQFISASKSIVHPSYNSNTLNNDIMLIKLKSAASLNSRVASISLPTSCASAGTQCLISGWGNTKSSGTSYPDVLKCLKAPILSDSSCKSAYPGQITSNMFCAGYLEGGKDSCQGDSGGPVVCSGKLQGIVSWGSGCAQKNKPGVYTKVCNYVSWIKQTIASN
Test: fluorogenic AMC substrate hydrolysis, kinetic read, non-linear regression
Assay type: biochemical

pIC50 | SMILES
4.90 | C=CC1=C(C)/C(=C/C2=NC(=C\c3[nH]c(/C=C4\NC(=O)C(C)=C4C=C)c(C)c3CCC(=O)O)/C(CCC(=O)O)=C2C)NC1=O [Biliverdin]
5.46 | C=CC1=C(C)/C(=C/c2[nH]c(Cc3[nH]c(/C=C4\NC(=O)C(C)=C4C=C)c(C)c3CCC(=O)O)c(CCC(=O)O)c2C)NC1=O [Unconjugated Bilirubin]
5.41 | CCC1=C(C)/C(=C/c2[nH]c(Cc3[nH]c(/C=C4\NC(=O)C(C)=C4CC)c(C)c3CCC(=O)O)c(CCC(=O)O)c2C)NC1=O [Mesobilirubin]
5.32 | CCC1=C(C)C(Cc2[nH]c(Cc3[nH]c(CC4NC(=O)C(C)=C4CC)c(C)c3CCC(=O)O)c(CCC(=O)O)c2C)NC1=O (stereo not shown) [Urobilinogen]
